# Reference: article PMC12018195, “A conserved phosphorylation mechanism for regulating the interaction between the CMG replicative helicase and its forked DNA substrate” (The Journal of Biological Chemistry, 2025)
# Assays:
# Assay in all cases: radiometric kinase assay, SDS-PAGE
# Format in all cases: biochemical
# human (Hs) Chk2 = target: T1, human (Hs) Chk2 (Homo sapiens, UniProt O96017); conditions: phosphate donor, 300 μM ATP spiked with labelled compound; acceptor histone H1 / Cdc25 peptide; 10 mM Mg acetate, pH 7.6, 30 °C
# T1 construct: gene CHEK2
# mouse (Mm) Chk2 = target: T2, mouse (Mm) Chk2 (Mus musculus, UniProt Q9Z265); conditions: phosphate donor, 300 μM ATP spiked with labelled compound; acceptor histone H1 / Cdc25 peptide; 10 mM Mg acetate, pH 7.6, 30 °C
# T2 construct: gene Chek2
# human (Hs) Chk1 = target: T3, human (Hs) Chk1 (Homo sapiens, UniProt O14757); conditions: phosphate donor, 300 μM ATP spiked with labelled compound; acceptor MCM2-7 / CMG / histone H1; 10 mM Mg acetate, pH 7.6, 30 °C
# T3 construct: gene CHEK1
# T3 sequence (O14757 1-476): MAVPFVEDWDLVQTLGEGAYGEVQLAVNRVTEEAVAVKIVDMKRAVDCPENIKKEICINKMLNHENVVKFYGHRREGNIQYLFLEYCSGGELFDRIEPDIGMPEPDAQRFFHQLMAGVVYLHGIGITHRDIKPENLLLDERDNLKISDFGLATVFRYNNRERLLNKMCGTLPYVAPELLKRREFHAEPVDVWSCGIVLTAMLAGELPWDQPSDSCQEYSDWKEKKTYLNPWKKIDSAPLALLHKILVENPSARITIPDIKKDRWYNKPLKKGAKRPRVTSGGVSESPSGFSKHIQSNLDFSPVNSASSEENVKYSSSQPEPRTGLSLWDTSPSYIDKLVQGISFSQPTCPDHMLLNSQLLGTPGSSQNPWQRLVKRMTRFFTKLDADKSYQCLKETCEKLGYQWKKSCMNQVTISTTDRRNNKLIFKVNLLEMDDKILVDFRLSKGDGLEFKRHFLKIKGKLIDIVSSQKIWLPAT
# Drosophila (Dm) Chk1 = target: T4, Drosophila (Dm) Chk1 (Drosophila melanogaster, UniProt O61661); conditions: phosphate donor, 300 μM ATP spiked with labelled compound; acceptor MCM2-7 / CMG / histone H1; 10 mM Mg acetate, pH 7.6, 30 °C
# T4 construct: gene grp
# T4 sequence (O61661 1-512): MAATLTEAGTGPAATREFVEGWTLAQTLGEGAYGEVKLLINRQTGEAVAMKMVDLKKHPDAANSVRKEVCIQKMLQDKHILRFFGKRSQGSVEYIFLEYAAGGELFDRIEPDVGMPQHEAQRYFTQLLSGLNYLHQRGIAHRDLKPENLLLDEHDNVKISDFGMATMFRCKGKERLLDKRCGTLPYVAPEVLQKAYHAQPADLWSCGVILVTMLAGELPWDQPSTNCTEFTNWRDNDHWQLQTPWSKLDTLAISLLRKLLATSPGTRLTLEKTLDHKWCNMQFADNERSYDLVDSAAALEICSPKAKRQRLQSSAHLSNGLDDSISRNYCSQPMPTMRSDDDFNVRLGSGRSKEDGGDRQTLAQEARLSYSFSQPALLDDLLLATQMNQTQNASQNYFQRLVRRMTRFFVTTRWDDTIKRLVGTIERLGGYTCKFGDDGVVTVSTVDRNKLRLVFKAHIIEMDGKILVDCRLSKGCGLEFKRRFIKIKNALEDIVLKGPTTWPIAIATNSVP
# T1 sequence (O96017 whole entry): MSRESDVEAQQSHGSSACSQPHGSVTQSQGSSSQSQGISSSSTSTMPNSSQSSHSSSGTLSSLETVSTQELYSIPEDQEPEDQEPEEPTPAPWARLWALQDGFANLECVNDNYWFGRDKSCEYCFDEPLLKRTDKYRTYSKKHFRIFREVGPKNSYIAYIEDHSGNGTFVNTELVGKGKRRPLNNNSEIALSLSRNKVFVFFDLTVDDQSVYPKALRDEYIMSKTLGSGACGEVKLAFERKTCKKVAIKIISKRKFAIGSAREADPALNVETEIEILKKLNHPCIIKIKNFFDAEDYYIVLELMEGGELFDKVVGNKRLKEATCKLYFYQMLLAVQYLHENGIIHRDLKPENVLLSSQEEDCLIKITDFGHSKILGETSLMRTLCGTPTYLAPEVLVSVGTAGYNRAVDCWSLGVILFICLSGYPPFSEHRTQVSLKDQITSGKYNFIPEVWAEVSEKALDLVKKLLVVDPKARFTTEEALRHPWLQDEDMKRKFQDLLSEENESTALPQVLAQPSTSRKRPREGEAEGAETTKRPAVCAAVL
# T2 sequence (Q9Z265 whole entry): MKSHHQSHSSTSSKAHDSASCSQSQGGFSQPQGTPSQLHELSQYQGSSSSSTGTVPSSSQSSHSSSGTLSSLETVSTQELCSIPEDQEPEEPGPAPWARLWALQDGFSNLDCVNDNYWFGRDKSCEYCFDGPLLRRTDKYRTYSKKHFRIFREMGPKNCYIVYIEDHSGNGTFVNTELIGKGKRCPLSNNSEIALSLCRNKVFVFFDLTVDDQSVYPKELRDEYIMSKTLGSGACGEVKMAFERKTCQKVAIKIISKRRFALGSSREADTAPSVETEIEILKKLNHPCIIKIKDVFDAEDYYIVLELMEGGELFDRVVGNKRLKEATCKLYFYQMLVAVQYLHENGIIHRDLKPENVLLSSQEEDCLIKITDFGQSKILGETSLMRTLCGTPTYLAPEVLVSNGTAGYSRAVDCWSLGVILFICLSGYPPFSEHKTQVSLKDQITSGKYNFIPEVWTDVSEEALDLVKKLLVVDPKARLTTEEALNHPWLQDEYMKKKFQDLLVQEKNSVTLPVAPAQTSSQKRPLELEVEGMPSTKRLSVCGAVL
compound,measurement,setting,value
Nc1ncnc2c1ncn2[C@@H]1O[C@H](COP(=O)(O)OP(=O)(O)OP(=O)(O)O)[C@@H](O)[C@H]1O [ATP],"radiometric kinase assay, SDS-PAGE",human (Hs) Chk2,human and mouse Chk2 were able to efficiently phosphorylate Cdc25 and histone H1 control substrates
same,"radiometric kinase assay, SDS-PAGE",mouse (Mm) Chk2,human and mouse Chk2 were able to efficiently phosphorylate Cdc25 and histone H1 control substrates
same,"radiometric kinase assay, SDS-PAGE",human (Hs) Chk1,The Chk1 proteins from Drosophila and humans phosphorylated MCM2-7 with similar efficiency
same,"radiometric kinase assay, SDS-PAGE",Drosophila (Dm) Chk1,"Drosophila Chk1 phosphorylated, on average, close to one residue per MCM2-7 complex"
